In this test the test system is P388 leukemia ip, CD2F1 mice, survival T/C. Nature of the test: NCI In Vivo Anticancer Drug Screen. Data for tumor model P388 Leukemia (intraperitoneal) in CD2F1 (CDF1) mice. The settings on record: endpoint: median survival time, higher = longer survival. Put shortly: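 Mice carrying the transplanted tumor received test compound or vehicle. Survival was recorded in each group, and the value is the treated-group measurement divided by that of the vehicle-treated control group.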

[1] abbreviates: dose: 50.0 mg/kg/injection, schedule: Q01DX009 (ip), vehicle: Klucel (hydroxypropylcellulose) (HPC).
The mark [2] stands for this setting: dose: 60.0 mg/kg/injection, schedule: Q01DX005 (ip), vehicle: saline.
Setting [3] is: dose: 120.0 mg/kg/injection, schedule: Q01DX005 (ip), vehicle: saline.
Setting [4] is: dose: 100.0 mg/kg/injection, schedule: Q04DX003 (ip), vehicle: saline.
The mark [5] stands for this setting: dose: 60.0 mg/kg/injection, schedule: Q01DX005 (ip), vehicle: saline with Tween-80.
[6] abbreviates: dose: 120.0 mg/kg/injection, schedule: Q01DX005 (ip), vehicle: saline with Tween-80.

SMILES strings stand for the structures. Where “and” joins values, the source holds several entries; their conditions need not be identical. Equal entries are not always repeated. Toxic doses and inconclusive results are not listed.

For `c1cnn(P2(n3cccn3)=NP(n3cccn3)(n3cccn3)=NP(n3cccn3)(n3cccn3)=NP(n3cccn3)(n3cccn3)=NP(n3cccn3)(n3cccn3)=NP(n3cccn3)(n3cccn3)=N2)c1`, the T/C runs as follows: (dose: 100.0 mg/kg/injection, schedule: Q01DX001 (ip), vehicle: saline with Tween-80) 100 % of control; (dose: 200.0 mg/kg/injection, schedule: Q01DX001 (ip), vehicle: saline with Tween-80) 100 % of control; (dose: 400.0 mg/kg/injection, schedule: Q01DX001 (ip), vehicle: saline with Tween-80) 98 % of control.
As to `CC1Cc2nc3ccccc3c(=O)n2O1` (configuration not stated), the T/C is 103 % of control under setting [1]; 107 % of control (dose: 100.0 mg/kg/injection, schedule: Q01DX009 (ip), vehicle: Klucel (hydroxypropylcellulose) (HPC)); 103 % of control (dose: 200.0 mg/kg/injection, schedule: Q01DX009 (ip), vehicle: Klucel (hydroxypropylcellulose) (HPC)).
As for `COc1ccccc1NC(=S)N/N=C\c1cc(N=Nc2ccccc2)cc(OC)c1O`, the T/C is 89 % of control (dose: 50.0 mg/kg/injection, schedule: Q01DX005 (ip), vehicle: saline with Tween-80) and 89 % of control (dose: 100.0 mg/kg/injection, schedule: Q01DX005 (ip), vehicle: saline with Tween-80).
For the compound `C=CC1CN2CCC1CC2C(O)c1ccnc2ccccc12` (configuration not stated), the T/C reads like this: under setting [2], 98 % of control; under setting [3], 98 % of control.
In the case of `Cc1ccc2c3c1CCCN3CCC2`, the T/C by setting is: (dose: 50.0 mg/kg/injection, schedule: Q04DX003 (ip), vehicle: saline) 112 % of control; under setting [4], 112 % of control.
In the case of `C=C1CC2(CCS(=O)(=O)c3ccccc32)OC1=O` (configuration not stated), the T/C is 105 % of control (dose: 12.5 mg/kg/injection, schedule: Q04DX002 (ip), vehicle: saline with Tween-80); 109 % of control (dose: 25.0 mg/kg/injection, schedule: Q04DX002 (ip), vehicle: saline with Tween-80); 116 % of control (dose: 50.0 mg/kg/injection, schedule: Q04DX002 (ip), vehicle: saline with Tween-80).
Turning to `CC[C@@H](C)[C@H]([C@H](CC(=O)N1CCC[C@@H]1[C@@H](OC)[C@H](C)C(=O)N[C@H](Cc1ccccc1)c1nccs1)OC)N(C)C(=O)[C@H](NC(=O)[C@@H](C(C)C)N(C)C)C(C)C`, the T/C runs as follows: (dose: 6.5 micrograms/kg/injection, schedule: Q01DX005 (ip), vehicle: saline + alcohol) 155 % of control; (dose: 13.5 micrograms/kg/injection, schedule: Q01DX009 (ip), vehicle: saline + alcohol) 173 % of control.
As to `O=C1C(O)[C@@H](O)C(=O)N1Cc1ccccc1` (some centres not stated), the T/C reads like this: (dose: 60.0 mg/kg/injection, schedule: Q01DX005 (ip), vehicle: Klucel (hydroxypropylcellulose) (HPC)) 97 % of control; (dose: 120.0 mg/kg/injection, schedule: Q01DX005 (ip), vehicle: Klucel (hydroxypropylcellulose) (HPC)) 102 % of control; (dose: 240.0 mg/kg/injection, schedule: Q01DX005 (ip), vehicle: Klucel (hydroxypropylcellulose) (HPC)) 93 % of control.
In the case of `COCC(=O)c1ccc(C#N)cc1`, the T/C reads like this: under setting [4], 100 % of control; (dose: 200.0 mg/kg/injection, schedule: Q04DX003 (ip), vehicle: saline) 100 % of control; (dose: 400.0 mg/kg/injection, schedule: Q04DX003 (ip), vehicle: saline) 100 % of control.
Take `CCC[CH2][Sn](=[S])[CH2]CCC`: under “dose: 1.56 mg/kg/injection, schedule: Q01DX009 (ip), vehicle: other”, the T/C is 116 % of control.
`COc1cc(/C=N/N2CN(C(C)C(=O)O)B(NCCC(C)C)N=C2N)cc(OC)c1` (configuration not stated): the T/C was 104 % of control under setting [5] and 111 % of control under setting [6].
Regarding `COc1ccc(NS(=O)(=O)c2ccc(N=Cc3c4ccccc4nc4cc(Cl)ccc34)cc2)nn1`, the T/C is 91 % of control under setting [5]; 90 % of control under setting [6]; 87 % of control (dose: 240.0 mg/kg/injection, schedule: Q01DX005 (ip), vehicle: saline with Tween-80).
For `CC1(C)CCCC2(C)C3=C(CCC12)C(=O)OC3` (configuration not stated), the T/C is, setting by setting: (dose: 25.0 mg/kg/injection, schedule: Q01DX005 (ip), vehicle: Klucel (hydroxypropylcellulose) (HPC)) 101 % of control; (dose: 50.0 mg/kg/injection, schedule: Q01DX005 (ip), vehicle: Klucel (hydroxypropylcellulose) (HPC)) 102 % of control; (dose: 100.0 mg/kg/injection, schedule: Q01DX005 (ip), vehicle: Klucel (hydroxypropylcellulose) (HPC)) 100 % of control; (dose: 200.0 mg/kg/injection, schedule: Q01DX005 (ip), vehicle: Klucel (hydroxypropylcellulose) (HPC)) 100 % of control.
Turning to `CCCCCCCCCCN(CCCCCCCCCC)C1CC(OC2CC(O)(C(C)=O)Cc3c(O)c4c(c(O)c32)C(=O)c2c(OC)cccc2C4=O)OC(C)C1O` (configuration not stated), the T/C was 113 % of control (dose: 3.13 mg/kg/injection, schedule: Q01DX009 (ip), vehicle: distilled water + Tween-80); 104 % of control (dose: 4.7 mg/kg/injection, schedule: Q04DX003 (ip), vehicle: other); 96 % of control (dose: 6.25 mg/kg/injection, schedule: Q01DX009 (ip), vehicle: distilled water + Tween-80); 104 % of control (dose: 9.4 mg/kg/injection, schedule: Q04DX003 (ip), vehicle: other); 102 % of control (dose: 12.5 mg/kg/injection, schedule: Q01DX009 (ip), vehicle: distilled water + Tween-80); 112 % of control (dose: 18.8 mg/kg/injection, schedule: Q04DX003 (ip), vehicle: other). Also, the T/C runs as follows: (dose: 37.5 mg/kg/injection, schedule: Q04DX003 (ip), vehicle: other) 105 % of control; (dose: 75.0 mg/kg/injection, schedule: Q04DX003 (ip), vehicle: other) 103 % of control.
For the compound `CCN(CC)C(=O)c1ccncc1C(=O)c1ccncc1`, the T/C by setting is: under setting [2], 94 % of control; under setting [3], 100 % of control; (dose: 240.0 mg/kg/injection, schedule: Q01DX005 (ip), vehicle: saline) 100 % of control.
In the case of `COc1cccc2c1C(=O)c1c(O)c3c(c(O)c1C2=O)C[C@@](O)(C(=O)CSc1nnc(C)s1)C[C@@H]3OC1CC(N)C(O)C(C)O1` (some centres not stated), the T/C by setting is: (dose: 6.25 mg/kg/injection, schedule: Q01DX009 (ip), vehicle: water) 154 % of control; (dose: 12.5 mg/kg/injection, schedule: Q01DX009 (ip), vehicle: water) 155 % of control and 158 % of control.
Regarding `COC(=O)C1=NC(=N)N=C(C(=O)OC)C12C(=O)Cc1ccccc12` (configuration not stated), the T/C is, setting by setting: under setting [5], 103 % of control; under setting [6], 100 % of control.
`O=Cc1c[nH]c2ccc(Br)cc12`: the T/C is, setting by setting: (dose: 100.0 mg/kg/injection, schedule: Q01DX001 (ip), vehicle: other) 100 % of control; (dose: 200.0 mg/kg/injection, schedule: Q01DX001 (ip), vehicle: other) 90 % of control; (dose: 400.0 mg/kg/injection, schedule: Q01DX001 (ip), vehicle: other) 100 % of control.
Take `CCCN(C)N=Nc1ccccc1C(=O)O`: the T/C was 111 % of control (dose: 3.12 mg/kg/injection, schedule: Q01DX009 (ip), vehicle: Klucel (hydroxypropylcellulose) (HPC)); 91 % of control (dose: 6.25 mg/kg/injection, schedule: Q01DX009 (ip), vehicle: Klucel (hydroxypropylcellulose) (HPC)); 110 % of control (dose: 12.5 mg/kg/injection, schedule: Q01DX009 (ip), vehicle: Klucel (hydroxypropylcellulose) (HPC)); 110 % of control (dose: 25.0 mg/kg/injection, schedule: Q01DX009 (ip), vehicle: Klucel (hydroxypropylcellulose) (HPC)); 105 % of control under setting [1].
Take `CN1CCC/C1=C/C(=O)c1cccc([N+](=O)[O-])c1`: the T/C reads like this: (dose: 100.0 mg/kg/injection, schedule: Q04DX003 (ip), vehicle: Klucel (hydroxypropylcellulose) (HPC)) 108 % of control; (dose: 200.0 mg/kg/injection, schedule: Q04DX003 (ip), vehicle: Klucel (hydroxypropylcellulose) (HPC)) 106 % of control.
For `CN1CC[C@]23c4c5ccc(O)c4O[C@H]2C(=O)CC[C@@]3(O)[C@H]1C5`, the T/C (dose: 50.0 mg/kg/injection, schedule: Q01DX009 (ip), vehicle: saline) is 94 % of control; the T/C (dose: 100.0 mg/kg/injection, schedule: Q01DX009 (ip), vehicle: saline) is 109 % of control; the T/C (dose: 200.0 mg/kg/injection, schedule: Q01DX009 (ip), vehicle: saline) is 102 % of control.
As for `O=C(O)CCSSCCCCCS(=O)O`, the T/C is 100 % of control (dose: 50.0 mg/kg/injection, schedule: Q01DX005 (ip), vehicle: saline); 104 % of control (dose: 100.0 mg/kg/injection, schedule: Q01DX005 (ip), vehicle: saline); 104 % of control (dose: 200.0 mg/kg/injection, schedule: Q01DX005 (ip), vehicle: saline).
On to `COc1ccc(C(=O)/C=N/O)cc1`, for which the T/C (dose: 25.0 mg/kg/injection, schedule: Q04DX003 (ip), vehicle: saline with Tween-80) is 95 % of control; the T/C (dose: 50.0 mg/kg/injection, schedule: Q04DX003 (ip), vehicle: saline with Tween-80) is 95 % of control; the T/C (dose: 100.0 mg/kg/injection, schedule: Q04DX003 (ip), vehicle: saline with Tween-80) is 86 % of control.
